Measured values reported in ChEMBL document CHEMBL1201862, “PubChem BioAssay data set” (2004).
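Following 48 hours of exposure in 96-well plates, responses at five concentrations were used to interpolate endpoints linearly. Here, GI50 denotes the concentration required for 50% inhibition of growth.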 Active and inactive are the calls of the source. Rule as the data show it: active = GI50 up to about 1.1 µM and inactive = higher. Positions of bridges follow the written chain, without caps; N, C: chain ends. Residues, ends and D or L forms follow the SMILES beside them.

Experiments:
Assay in all cases: DTP human tumour cell line panel, 48 h
[1] = system: 786-0
[2] = system: BT-549
[3] = system: COLO 205
[4] = system: DU-145
[5] = system: EKVX
[6] = system: HCC 2998
[7] = system: HCT-15
[8] = system: HL-60
[9] = system: MDA-MB-435
[10] = system: NCI-H226
[11] = system: NCI-H522
[12] = system: OVCAR-4
[13] = system: OVCAR-5
[14] = system: SNB-75
[15] = system: SW-620
[16] = system: T47D
[17] = system: U-251
[18] = system: UACC-257
[19] = system: HOP-92

| Compound | GI50 [1] | GI50 [2] | GI50 [3] | GI50 [4] | GI50 [5] | GI50 [6] | GI50 [7] | GI50 [8] | GI50 [9] | GI50 [10] | GI50 [11] | GI50 [12] | GI50 [13] | GI50 [14] | GI50 [15] | GI50 [16] | GI50 [17] | GI50 [18] | GI50 [19] |
| --- | --- | --- | --- | --- | --- | --- | --- | --- | --- | --- | --- | --- | --- | --- | --- | --- | --- | --- | --- |
| COC(=O)C1CCC(=O)NCCCCC(NC(=O)C(N)CC(=O)O)C(=O)N1 (stereo not drawn) (H-Asp-Lys-Glu-OMe; lactam 2-3; configuration not given here) | 71.9 µM (inactive) | > 100 µM (inactive) | > 100 µM (inactive) | > 100 µM (inactive) | > 100 µM (inactive) | > 100 µM (inactive) | > 100 µM | 29.4 µM (inactive) | > 100 µM (inactive) | > 100 µM (inactive) | > 100 µM (inactive) | > 100 µM (inactive) | > 100 µM (inactive) | 88.7 µM (inactive) | > 100 µM (inactive) | > 100 µM (inactive) | > 100 µM (inactive) | > 100 µM (inactive) |  |
| O=C1CCCCC/C1=C\c1ccc(Cl)cc1 | 32.4 µM (inactive) | 31.2 µM (inactive) | 18.2 µM (inactive) | 39.2 µM (inactive) | 44.3 µM (inactive) | 26.2 µM (inactive) | 28.1 µM |  | 20.6 µM (inactive) | 81.1 µM (inactive) | 25.4 µM (inactive) | 26.7 µM (inactive) | 78.9 µM (inactive) | 17 µM (inactive) | 24.7 µM (inactive) | 37.3 µM (inactive) | 30 µM (inactive) | 32.4 µM (inactive) | 35.7 µM (inactive) |
| O=C1/C(=C\c2ccc(O)cc2)CCC/C1=C/c1ccc(Cl)c(Cl)c1 | 2.43 µM (inactive) | 2.77 µM (inactive) | 1.76 µM (inactive) | 3.19 µM (inactive) | 7.69 µM (inactive) | 2.31 µM (inactive) | 2.96 µM | 1.96 µM (inactive) | 3.15 µM (inactive) | 3.96 µM (inactive) |  | 2.32 µM (inactive) | 18.8 µM (inactive) | 2.72 µM (inactive) | 3.37 µM (inactive) | 11.5 µM (inactive) | 4.36 µM (inactive) | 4.19 µM (inactive) | 15.6 µM (inactive) |
| CC(C)C(C/C=C1\CC(CO)(COC(=O)C(C)(C)C)OC1=O)C(C)C (stereo unspecified) | 2.65 µM (inactive) | 11.5 µM (inactive) | 1.64 µM (inactive) | 4.65 µM (inactive) | 11.1 µM (inactive) | 7.03 µM (inactive) | 13.4 µM |  | 11.9 µM (inactive) | 5.12 µM (inactive) | 14.1 µM (inactive) | 16.3 µM (inactive) | 10.5 µM (inactive) | 1.84 µM (inactive) | 4.48 µM (inactive) | 15.1 µM (inactive) | 10.7 µM (inactive) | 16 µM (inactive) | 10.3 µM (inactive) |
| O=C1c2cc3c(cc2CC1Br)CCC3 (stereo unspecified) | 1.8 µM (inactive) | 1.96 µM (inactive) | 1.97 µM (inactive) | 16 µM (inactive) | 14.6 µM (inactive) | 5.64 µM (inactive) | 1.96 µM | 2.9 µM (inactive) | 1.99 µM (inactive) | 3.36 µM (inactive) | 1.45 µM (inactive) | 1.85 µM (inactive) | 5.64 µM (inactive) | 2.93 µM (inactive) | 1.42 µM (inactive) | 2.39 µM (inactive) | 3.26 µM (inactive) | 2.23 µM (inactive) |  |
| Nc1ncc(CN2CCOCC2)c(-c2ccccc2O)n1 | > 100 µM (inactive) | > 100 µM (inactive) | > 100 µM (inactive) | > 100 µM (inactive) | > 100 µM (inactive) |  | > 100 µM | > 100 µM (inactive) | > 100 µM (inactive) | > 100 µM (inactive) |  | > 100 µM (inactive) | > 100 µM (inactive) | > 100 µM (inactive) | > 100 µM (inactive) | > 100 µM (inactive) | > 100 µM (inactive) | > 100 µM (inactive) | > 100 µM (inactive) |
| CCCCN1C(=O)CC2[C@@H]3CCc4cc(OC(C)=O)ccc4C3CC[C@]2(C)C1=O (stereo partly specified) | > 10 µM (inactive) | > 10 µM (inactive) | > 10 µM (inactive) | > 10 µM (inactive) | > 10 µM (inactive) | > 10 µM (inactive) | > 10 µM | 9.42 µM (inactive) | > 10 µM (inactive) | > 10 µM (inactive) |  | > 10 µM (inactive) | > 10 µM (inactive) |  | > 10 µM (inactive) | > 10 µM (inactive) | > 10 µM (inactive) | > 10 µM (inactive) | > 10 µM (inactive) |
| CC(=O)Oc1cc2c(c3ncccc13)OC(C)(C)C2 | 14.6 µM (inactive) | > 100 µM (inactive) | 18.1 µM (inactive) | 15.1 µM (inactive) |  | 15.5 µM (inactive) | 11.8 µM |  | 3.33 µM (inactive) | 16.3 µM (inactive) | 1.17 µM (inactive) | 12.1 µM (inactive) | 14.8 µM (inactive) | 2.06 µM (inactive) | 13.3 µM (inactive) | 17.1 µM (inactive) | 12.4 µM (inactive) | 15.5 µM (inactive) | 13 µM (inactive) |
